From patent US20190388389A1, “METHODS AND COMPOSITIONS OF CARNOSOL FOR INHIBITING UVB-INDUCED SKIN DAMAGE” (Ohio University, priority 2017, published 2019) come the findings set out here.

For data set [1], the system named is cyclobutane pyrimidine dimer (CPD) formation. The data set can be described thus: Quantitative measurement of CPD formation after UVB. In kind it is cell-based. Conditions: with vs without carnosol. From the text: FIG. 5E: Quantitative measurement of cyclobutane pyrimidine dimer (CPD) formation, with and without UVB, and with and without carnosol. *p<0.05 versus corresponded control group, **p<0.05 versus corresponded UV group.
There are two major forms of DNA damage caused by UVB radiation: one is the direct DNA damage which forms CPD; the other is the oxidation-caused DNA damage, which causes the formation of 6-4 PP. In order to identify which form of DNA damage is protected by carnosol, a quantitative assay to identify the production of both DNA damage products after UVB radiation with or without carnosol treatment was performed.

Data set [2] relates to HaCaT cells. The data set can be described thus: Comet assay for HaCaT exposed to UVB radiation. In kind it is cell-based, Human. To be noted: semi-quantitative by Image J. From the text:
FIG. 5D: Comet assay for HaCaT exposed to UVB radiation. After cell treatment, cells were trypsinized and collect for comet assay. The tail intensity was semi-quantitatively analyzed using Image J.
Both human keratinocyte (HaCaT) and mouse embryonic fibroblast (MEF) cells were used, and the protein levels of γH2AX and phosphor-Chk were used as DNA damage marker. […] Similar results are observed in MEF cells as both the phosphorylation level of H2AX and Chk reduced at early stage post UVB radiation (FIG. 5B). […] To further show the protection effect of carnosol on UVB-irradiated cell, a comet assay was performed. […] Thus, carnosol ast least partially protect the DNA damage from UVB radiation.

The test system of the next data set is normal skin cells. Description: Cell proliferation with carnosol or its decomposed molecules (FIG. 11). In kind it is cell-based. The procedure:
FIG. 11. The effect of carnosol or its decomposed molecules on cell proliferation was determined.
(§1) UVB was generated from a Bench XX-Series UV Lamp (UVP Inc.) equipped with two 15-watt UVB tubes (UVP Inc.). The intensity of UVB was calibrated by a UVP model UVX digital radiometer (UVP Inc.) after the lamps warmed up for 5 min. For irradiating cells, the dose rate for 8 mJ/cm^2 or 50 mJ/cm^2 of UVB radiation was 0.8 or 3.8 mW/s respectively. Medium was removed before exposing the cells to UVB. After UVB radiation, fresh medium was added to the culture plates with or without drugs, and the cells were continue incubating at 37° C. with 5% CO2 until further analysis. Carnosol was disovled in DMSO and was irradiated with 50 mJ/cm^2 of UVB radiation at a dose rate of 3.8 mW/s before subjecting to cells or structure analysis using Mass Spectrum.

For data set [3], the system named is intracellular ROS level in HaCaT cells. Description: ROS measurement with CM-H2DCFDA after UVB radiation. The data set is classed as cell-based, Human. To be noted: for ROS level post-UVB: UVB 50 mJ/cm^2, 6 h, UVB alone 2.1-fold. The procedure:
FIG. 2: Dose dependent effect of carnosol on UVB-induced intracellular ROS level. HaCaT cells were seeded in 96 well plate and incubated with CM-H2DCFDA dye one hour prior to UVB exposure, with or without carnosol treatment. ROS was measured at 6 h post UVB radiation with indicated concentration of carnosol treatment using ex490/em520 nm. The data represents three to five sets of independent experiments. *p<0.05 versus corresponded control group, **p<0.05 versus UV alone.
FIGS. 3A-3B: Time dependent effect of carnosol on UVB-induced intracellular ROS level. HaCaT cells were seeded in 96 well plate and CM-H2DCFDA dye was used to measure intracellular ROS level. Carnosol (20 μM) was added to cells 1 h prior to UVB exposure, and ROS level was measured at 20 min intervals post UVB. (FIG. 3A) Intracellular ROS level at 20 min intervals with or without carnosol treatment. (FIG. 3B) Statistical analysis of intracellular ROS level at 240, 480, 720 min post UVB radiation with or without carnosol (20 μM) treatment. *p<0.05 versus corresponded control group, **p<0.05 versus corresponded UV group.
as §1
Carnosol (Cayman) (FIG. 1) was added to cells at indicated concentration at 1 h before exposing the cells to UVB radiation. After radiation, cells were continuously incubated with or without carnosol in the medium until further analysis.
CM-H2DCFDA (Invitrogen) was used to measure the total ROS level in cells. CM-H2DCFDA was dissolved in DMSO to a stock solution of 500 μM and diluted in PBS to final concentration of 5 μM. CM-H2DCFDA was added into cells 1 h prior to UVB exposure and the reading of fluorescence dye was recorded every 20 minutes using luminometer (Molecular devices Spectra Max M2).

Data set [4] has as its system HaCaT cells. The data set can be described thus: HaCaT transformation in soft agar after repeated UVB. The data set is classed as cell-based, Human. Conditions: 10 mJ/cm^2 UVB every 48 h for 14 days, soft agar 10 days; UVB alone about 3.5 fold. The protocol: FIG. 8: Carnosol decreases HaCaT transformation rate upon UVB radiation. HaCaT cells were exposed to 10 mJ/cm^2 UVB radiation every 48 h for 14 days. Cells were then collected and equal amount of cells were then re-seeded into 96 well plate with soft agar. After 10 days of incubation, cells were stained and dissolved and the fluorescent intensity was determined. *p<0.05 versus control group, **p<0.05 versus UV group.
HaCaT cells were exposed to 10 mJ/cm^2 UVB radiation every 48 h for 14 days. As only cancerous cells can survive in the soft-agar, by staining the survival cells with fluorescent dye, the cell transformation rate was determined.

For `CC(C)c1cc2c(c(O)c1O)[C@@]13CCCC(C)(C)[C@@H]1C[C@@H]2OC3=O` [carnosol], the “formation of CPD after UVB radiation” value in data set [1] was “almost by half”. In the data set with HaCaT cells [2], the “comet tail intensity upon UVB radiation” value is recorded as “almost by half”. Moreover, in the data set with normal skin cells, the “protection of the UVB-irradiated cells (proliferation)” value is given as “partial protection”. Moreover, the “cell proliferation / cell growth in normal skin cells” value in the data set on normal skin cells (without UVB protection context) was “some effect in inhibiting cell proliferation”. Further, the “ROS level post-UVB” value in data set [3] (0.1 μM carnosol) was “not statistically significantly changed”; in data set [3] (0.5 μM carnosol) it was “not statistically significantly changed”; in data set [3] (10 μM carnosol), “about 1.5 fold”; in data set [3] (20 μM carnosol), about 1.3 fold; in data set [3] (30 μM carnosol), about 1.3 fold. The “ROS level in the irradiated cells” value in data set [3] (20 μM carnosol, 20 min to 10 h post-UVB) is recorded as “continuously reduces”. Moreover, the “decrease of ROS level” value in data set [3] (20 μM carnosol, 240 min after UVB) is about 30%; in data set [3] (20 μM carnosol, 480 min after UVB), about 30%; in data set [3] (20 μM carnosol, 720 min after UVB), about 30%; in data set [3] (20 μM carnosol, immediately after UVB treatment), 20%. The “ROS level in untreated cells” value in data set [3] (20 μM carnosol, no UVB, 20 min intervals up to 12 h) is on record as “did not statistically significant affect”. Further, the ROS level result in data set [3] (carnosol alone 0.1 μM to 30 μM, no UVB (Control), 6 h) is reported as “no statistic significant effect”. Moreover, the cell transformation entry in the data set on HaCaT cells [4] is recorded as “about 2.2 fold”.
